Patent US20070282004A1, “Use of a Cyclopentenone Prostaglandin for Delaying for the Onset and/or Preventing the Continuation of Labour” (Imperial College Innovations Limited, priority 2003, published 2007)

Assays:
NF-κB [1] = molecular target: T1, NF-κB (Homo sapiens, UniProt P19838+Q04206); experiment: EMSA of NF-κB DNA binding in nuclear extracts of treated amnion cells; type: cell-based; conditions: amnion cells treated with 15d-PGJ2 in the presence of the PPAR-γ inhibitor
T1 construct: nuclear protein extracts from myometrial cells; endogenous in cells; host or cells: primary human myometrial cells (term, passage 1-4)
Experimental: (§1) Placentae were obtained from patients at term either at elective Caesarean section prior to labour (L−) or following spontaneous labour onset and vaginal delivery (L+). Amnion cells were prepared as described in Bennett et al., (1989). Briefly, the amnion was separated from the placenta, washed 3× in PBS, cut into strips, and incubated in 0.5 mM EDTA in PBS for 15 min. The strips were washed in PBS 2× and digested with 2.5 mg/ml dispase in serum-free DMEM for 35 min at 37° C. The amnion was then shaken vigorously in DMEM, 10% FCS to dissociate the cells, the remaining strips discarded, and the cell suspension pelleted at 175 g for 10 min and cultured in DMEM, 10% FCS (Sigma), 1% L-glutamine, 1% penicillin-streptomycin.
(§2) Nuclear and cytosolic protein extracts were obtained from cultured amnion cells as described by Schreiber et al (1989). For nuclear/cytosolic fractionation, confluent cell monolayers were scraped and lysed using a buffer containing 10 mM HEPES, 10 mM KCl, 0.1 mM EDTA, 0.1 mM EGTA, 2 mM DTT, 1% (v/v) NP-40 and complete protease inhibitor tablets (CPIs, Roche), diluted to manufacturer's instructions. Cell lysates were incubated on ice for 10 min and NP-40 added to a final concentration of 1% (v/v). Lysates were vortexed for 10 secs and centrifuged for 30 secs at 4° C., 12000 g. The supernatants were retained as the cytosolic protein extracts. The pellets were resuspended in buffer containing 10 mM HEPES, 10 mM KCl, 0.1 mM EDTA, 0.1 mM EGTA, 2 mM DTT, 400 mM NaCl, 1% NP-40 (v/v) and CPIs. Samples were shaken vigorously for 15 min in an ice bath. The nuclear protein extracts were obtained in the supernatant following a 5 min centrifugation at 4° C., 12000 g.
(§3) Sense and antisense strands (175 nmole/ml each) were incubated in annealing buffer (10 mM Tris-HCl pH7.5, 100 mM NaCl, 1 mM EDTA) for 10 min at 65° C., and allowed to cool at room temperature for 2 h. 3.5 pmole double-stranded oligonucleotides were end-labelled with 0.37 MBq ^32P(γATP) by incubating for 30 min at 37° C. with T4 polynucleotide kinase. Labelled oligonucleotides were recovered by centrifugation at 3000 rpm for 2 min through MicroSpin G-25 or G-50 sephadex columns (Amersham Biosciences).
(§4) 3-5 μg protein extracts were incubated on ice for 1 h with non-radiolabelled non-specific oligonucleotide (poly(dI-dC) or Oct-1) in a binding buffer (20% (v/V) glycerol, 5 mM MgCl2, 2 mM EDTA, 50 mM Tris-HCl pH7.5, 250 mM NaCl, 2 mM DTT), followed by a 45 min incubation with 0.035 pmole ^32P(γ(ATP)-end labelled oligonucleotide probes:
(§5) Oct-1 or SP-1 consensus sequences were used as a controls for a NF-κB-specific effect. The resulting protein/DNA complexes were separated in a 4% acrylamide gel, the gel dried under vacuum at 80° C. and exposed to X-ray film. For supershift analysis, samples were incubated with 2 μg antibodies for 30 min on ice prior to incubation with oligonucleotides. Non-radio-labelled oligonucleotides were used at 100-fold molar excess for specific and non-specific competition for DNA binding. Reagents for EMSA were obtained from Promega Life Sciences, Delta House, Chilworth Research Centre, Southampton SO16 7NS, United Kingdom.

PPAR-γ = molecular target: T2, PPAR-γ (Homo sapiens, UniProt P37231); conditions: covalent modification of Cys285 (Leesnitzer et al., 2002); cited from earlier work
T2 sequence (P37231 1-505): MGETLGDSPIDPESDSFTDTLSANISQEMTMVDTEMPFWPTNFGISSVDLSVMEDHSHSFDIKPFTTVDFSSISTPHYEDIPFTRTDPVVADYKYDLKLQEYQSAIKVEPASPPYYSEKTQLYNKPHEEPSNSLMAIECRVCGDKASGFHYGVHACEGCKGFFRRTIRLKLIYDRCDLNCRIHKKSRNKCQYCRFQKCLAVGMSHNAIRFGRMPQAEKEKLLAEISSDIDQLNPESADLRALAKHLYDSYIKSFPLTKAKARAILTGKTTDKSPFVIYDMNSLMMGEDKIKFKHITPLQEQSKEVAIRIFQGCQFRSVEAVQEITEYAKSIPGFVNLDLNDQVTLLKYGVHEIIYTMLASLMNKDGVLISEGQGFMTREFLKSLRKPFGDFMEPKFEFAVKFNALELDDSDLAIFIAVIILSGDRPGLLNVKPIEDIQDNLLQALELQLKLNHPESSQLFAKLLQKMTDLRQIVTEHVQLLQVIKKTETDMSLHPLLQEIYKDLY

NF-κB [2] = molecular target: T1, NF-κB; experiment: EMSA of NF-κB DNA binding in nuclear extracts of treated myometrial cells; type: cell-based; conditions: myometrial cells
Experimental: (§6) Myometrial tissue was collected at term from the upper margin of uterine incision at the time of lower segment caesarean section either prior to the onset of labour (L−) or […] (L+). L+ samples were collected by Dr Mark Johnson and Dr S Soorrana at Chelsea & Westminster Hospital. Myometrial tissue was dissected, rinsed in PBS, and digested in serum-free DMEM containing 15 mg/ml collagenase 1A (Sigma), 15 mg/ml collagenase X, and 50 mg/ml bovine serum albumin for 45 min at 37° C. The cell suspension was filtered through a cell strainer, centrifuged at 400 g for 5 min, and the pellet re-suspended and plated out in DMEM, 10% FCS (Helena BioScience), 1% L-glutainine, 1% penicillin-streptomycin. Cells were used between passage numbers 1-4.
as §2, §3, §4, §5

NF-κB [3] = experiment: NF-κB-dependent luciferase reporter (κB.BG.Luc) in amnion cells; type: cell-based, human; conditions: L− or L+ amnion cells, treated 2 h, IL-1β 1 ng/ml 6 h
Experimental: . Values are normalised for b-gal reporter activity.
as §1
pGL3.6κB.BG.luc was the reporter construct used to assess NF-κB-mediated transcription, while the mutant pGL3.6κBmut.luc and empty pGL3.BG.luc were used as controls (Schwarzer et al., 1998).
pGL3.6κB.BG.luc: a NF-κB-dependent reporter construct with 6 copies of the NF-κB binding site. It contains two tandem repeats of the sequence 5′-GGG GAC TTT C CC TGGGGACTTTCCCTGGGGACTTTCCC-3′, which contains three copies of the decameric NF-κB binding site (underlined) upstream of a minimal β-globin promoter driving a luciferase gene.
Cells were co-transfected with the renilla vector pRL-CMV or β-galactosidase vector pCH110 as internal controls for transfection efficiencies.

COX-2 = experiment: Western immunoblot of IL-1β-induced COX-2 protein in myometrial cells; type: cell-based, human; conditions: treated 2 h, IL-1β 6 h
Experimental: as §6
Nuclear and cytosolic protein extracts were obtained from cultured amnion cells as described by Schreiber et al (1989). […]
Protein samples (20-70 μg) were mixed with Laemmli sample buffer (1:1) containing β-mercaptoethanol (5%), and boiled for 5 min. […] The blots were then incubated with HRP-conjugated secondary antibody (diluted 1:2000 in 1% non-fat milk in PBS-T buffer) for 1 h and washed three times (10 min each) in PBS-T. Signal detection was achieved using enhanced chemi-luminescence (ECL plus system, Amersham Pharmacia Biotech) according to manufacturer's instructions. […]

PPARα = conditions: GAL4 chimera transfection system (Kehrer et al., 2001); cited from earlier work

T1 sequence (Q04206 whole entry): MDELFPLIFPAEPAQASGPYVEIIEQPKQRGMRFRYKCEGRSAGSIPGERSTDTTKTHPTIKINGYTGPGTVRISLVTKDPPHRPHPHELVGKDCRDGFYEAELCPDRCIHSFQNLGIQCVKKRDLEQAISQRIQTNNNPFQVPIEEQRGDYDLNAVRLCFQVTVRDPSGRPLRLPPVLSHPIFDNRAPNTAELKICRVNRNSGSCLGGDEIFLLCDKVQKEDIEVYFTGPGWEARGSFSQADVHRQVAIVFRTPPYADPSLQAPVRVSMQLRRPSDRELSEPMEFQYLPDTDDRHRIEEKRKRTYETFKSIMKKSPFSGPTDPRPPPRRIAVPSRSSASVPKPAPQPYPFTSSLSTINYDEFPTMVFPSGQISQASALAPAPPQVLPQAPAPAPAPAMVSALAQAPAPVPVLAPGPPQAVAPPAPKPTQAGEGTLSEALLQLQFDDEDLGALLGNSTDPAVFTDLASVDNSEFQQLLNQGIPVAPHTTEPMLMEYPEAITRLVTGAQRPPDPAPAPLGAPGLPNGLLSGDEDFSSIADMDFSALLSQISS
T1 sequence (P19838 1-433 limits assumed): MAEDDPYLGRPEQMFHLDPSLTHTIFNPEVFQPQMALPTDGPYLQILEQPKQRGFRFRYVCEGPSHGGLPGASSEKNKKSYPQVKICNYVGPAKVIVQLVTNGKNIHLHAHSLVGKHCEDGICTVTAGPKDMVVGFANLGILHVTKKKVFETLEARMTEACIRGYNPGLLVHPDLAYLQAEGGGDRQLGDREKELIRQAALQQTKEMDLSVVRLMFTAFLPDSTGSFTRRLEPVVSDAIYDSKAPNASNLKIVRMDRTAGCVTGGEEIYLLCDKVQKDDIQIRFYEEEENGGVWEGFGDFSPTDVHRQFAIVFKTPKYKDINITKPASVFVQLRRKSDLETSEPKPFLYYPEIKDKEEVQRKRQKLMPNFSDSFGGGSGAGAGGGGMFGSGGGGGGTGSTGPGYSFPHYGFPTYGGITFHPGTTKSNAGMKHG

SMILES	Alleviation of 15d-PGJ2 inhibition of NF-κB DNA binding (NF-κB [1])	Alleviation of 15d-PGJ2 inhibition of NF-κB DNA binding (NF-κB [1]; listed as GW9662)	Binding to PPAR-γ (PPAR-γ)	NF-κB DNA binding (EMSA) (NF-κB [2]; 10-100 μM concentrations)	IL-1β-induced NF-κB DNA binding (EMSA) (NF-κB [2]; treated 2 h, then IL-1β 15 min)	IL-1β-induced NF-κB transcriptional activity (κB.BG.Luc reporter) (NF-κB [3])	IL-1β-induced COX-2 expression (COX-2)	Doses that transactivate PPARα (PPARα) [µM]
O=C(Nc1ccccc1)c1cc([N+](=O)[O-])ccc1Cl [GW-9662, reference compound]	failed to alleviate	does not alleviate	binds irreversibly					
Cc1cccc(Nc2cc(Cl)nc(SCC(=O)O)n2)c1C [WY-14643, reference compound]				had no effect	do not inhibit	did not	not	5 to 25
